Experiments:
[1] = cited from earlier work; for water-solubility: prior-art compounds
TNB-induced colitis = assay: Effect of repressing lesion in TNB-induced colitis (body weight increase, damage score, wet weight of intestine); assay type: in vivo, Male Wistar rats; settings: intraabdominal, daily, one week; for Wet weight: intestine, normal 0.58, control 2.6; for Damage score: lesion 0-5 plus adhesion 0-3, normal 0, control 7.25; for Amount of increase in body weight: normal group 93.5, control group 17.5
Text: (§1) The trinitrobenzenesulfonic acid (TNB)-induced colitis is said to resemble the inflammatory bowel disease of man, particularly Crohn's disease. In this model, the myeloperoxidase (MPO) activity, i.e. an index of the humectation of neutrophil into the tissue, prominently increases in the intestinal mucous membrane from the initial stage of the TNB administration onward and thereafter induces full-thickness inflammations inclusive of edama, erosion, and necrosis of the intestinal duct. In this lesion of the mucous membrane, the thiobarbituraic acid (TAB) reaction substance, i.e. an index of the peroxide of lipid, also increases and the antioxidizing substances such as the SOD activity, the glutathionperoxidase (GPx) activity, and α-tocopherol conversely decrease. By the use of this model, the chromanol glucoside was tested for the effect thereof manifested in repressing the lesion of the TNB-induced colitis.
(§2) As the chromanol glucoside, the 2-(α-D-glucopyranosyl) methyl-2,5,7,8-tetramethylchroman-6-ol (TMG) represented by the following formula (3) produced by the method described in Example 1 of JP-A-07-118,287 was thoroughly dissolved in water in varying concentrations of 20 mg/ml, 2 mg/ml, and 0.2 mg/ml to obtain injection grade preparations. [drawing 5]
Male Wistar rats 7 weeks old weighing 190-210 g were divided into groups of six heads. To the rats, after 48 hours' fasting, the TBN dissolved in 50% ethanol in a ratio of 120 mg/ml was intestinally administered at a dose of 1 ml/kg. Thereafter, the TMG preparations obtained as described above were administered to the rats intraabdominally at a dose of […] per head daily. After one week of the administration, the rats were rated for increase of body weight, damage score of the intestine in a 8 cm region on the side of the anus, wet weight, TBA reactive substance, and MPO activity.
(§3) Of the items of rating mentioned above, the damage score, the TBA reactive substance, and the MPO activity were measured by the following methods.
The lesion on the intestinal mucous membrane was classified on the six-point (0-5) scale in accordance with the Morris Classification (G. P. Morris, et al.,: Gastoenterology, 96 (1989) 750-803) and the degree of adhesion to the intestinal mucous membrane was classified on the four-point (0-3) scale (0: absence of adhesion, 1: presence of incontinuous adhesion, 2: presence of continuous adhesion, and 3: presence of clots). The sums of these points were used for rating.

[2] = system: TBA reactive substance (index of the peroxide of lipid), TNB-induced colitis; assay: TBA reactive substance in intestinal mucous membrane of TNB-induced colitis; assay type: in vivo, Male Wistar rats; settings: intraabdominal, daily, one week, normal 0.13, control 0.53
Text: as §1, §2
Male Wistar rats 7 weeks old weighing 190-210 g were divided into groups of six heads. To the rats, after 48 hours' fasting, the TBN dissolved in 50% ethanol in a ratio of 120 mg/ml was intestinally administered at a dose of 1 ml/kg. […]
as §3
The determination was performed in accordance with the method proposed by Ohkawa et al. (H. Ohkawa, et al.: Anal. Biochem., 95 (1979) 351-358). […] The supernatant resulting from the centrifugation was measured for absorbance at a wavelength of 535 nm with a spectrophotometer. […] Based on this calibration curve, the TBA reactive substance of a sample was determined.

[3] = system: myeloperoxidase (MPO), TNB-induced colitis; assay: MPO activity in intestinal mucous membrane of TNB-induced colitis; assay type: in vivo, Male Wistar rats; settings: intraabdominal, daily, one week, normal 0.19, control 0.74
Text: as §1, §2
Male Wistar rats 7 weeks old weighing 190-210 g were divided into groups of six heads. […]
as §3
The determination was carried out in accordance with the o-dianisidine-hydrogen peroxide reaction (J. E. Krrawisz, et al.,: Gastroenterology, 87 (1984) 1344-135). […] In 950 μl of a reaction solution prepared by dissolving 16.7 mg of o-dianidine dihydrochloride in 50 mM of potassium phosphate having a pH of 6.0 and further mixing the resulting solution with 100 μl of an aqueous 0.5% hydrogen peroxide solution, 50 μl of the sample was placed and measured for change in absorbance at a wavelength of 460 nm with a spectrophotometer. […]

ICR type mice = assay: Test for acute toxicity; assay type: in vivo; settings: oral, 500 mg/kg in 5% gum arabic solution, one week observation
Description: The preventive and curative agent of this invention for inflammatory bowel diseases was tested for acute toxicity in an effort to confirm the safety thereof. ICR type mice 4-5 weeks old were divided into groups of three heads. The same TMG as mentioned above was suspended as a chromanol glucoside in 5% gum arabic solution. The resultant suspension was orally administered to the rats in a dosage of 500 mg/kg as reduced to TMG, with the rats kept under observation for one week. In this case, 0.3 ml of a 5% gum arabic solution was administered to a control group.

Water-solubility = assay type: physicochemical; settings: ratio to that of Trolox

In the case of Cc1c(C)c2c(c(C)c1O)CCC(C)(CCCC(C)CCCC(C)CCCC(C)C)O2 (stereo not drawn) [vitamin E, α-tocopherol], the “water-solubility (in words)” value ([1]; prior-art compound) is listed as “not soluble in water”.

For Cc1c(C)c2c(c(C)c1O)CCC(C)(CO[C@H]1O[C@H](CO)[C@@H](O)[C@H](O)[C@H]1O)O2 (some centres unmarked) [TMG], the Wet weight (TNB-induced colitis; TMG 0.2 mg/ml) was 1.06 g/8 cm, the Damage score (TNB-induced colitis; TMG 0.2 mg/ml) was 4.75 and the “Amount of increase in body weight” value (TNB-induced colitis; TMG 0.2 mg/ml) was 63 g/one week. The Wet weight (TNB-induced colitis; TMG 2 mg/ml) was 1.15 g/8 cm, the Damage score (TNB-induced colitis; TMG 2 mg/ml) was 3.75 and the “Amount of increase in body weight” value (TNB-induced colitis; TMG 2 mg/ml) was 64 g/one week. The Wet weight (TNB-induced colitis; TMG 20 mg/ml) was 0.86 g/8 cm, the Damage score (TNB-induced colitis; TMG 20 mg/ml) was 4 and the “Amount of increase in body weight” value (TNB-induced colitis; TMG 20 mg/ml) was 57 g/one week. For the same compound, the TAB reactive substance ([2]; TMG 0.2 mg/ml) was 0.31 ng/mg protein, the TAB reactive substance ([2]; TMG 2 mg/ml) was 0.38 ng/mg protein and the TAB reactive substance ([2]; TMG 20 mg/ml) was 0.35 ng/mg protein. It also gave an MPO activity ([3]; TMG 0.2 mg/ml) of 0.52 U/l/mg protein, an MPO activity ([3]; TMG 2 mg/ml) of 0.64 U/l/mg protein and an MPO activity ([3]; TMG 20 mg/ml) of 0.48 U/l/mg protein. The “death of mouse in acute toxicity test” value (ICR type mice) was “No case of death”.

In the case of Cc1c(C)c2c(c(C)c1O)CCC(C)(C(=O)O)O2 (centres unmarked) [Trolox, 6-hydroxy-2,5,7,8-tetramethylchroman-2-carboxylic acid], the water-solubility [1] is given as “about 15 mg/100 ml”.

In the case of Cc1c(C)c2c(c(C)c1O)CCC(C)(CO)O2 (centres unmarked) [TMC-2-substituted methanol, 2-hydroxymethyl-2,5,7,8-tetramethylchroman-6-ol], the “water-solubility relative to Trolox” value (Water-solubility) is given as “about 6.3 times” and the water-solubility [1] is given as “about 100 mg/100 ml”.

— patent publication US6174864A, “Methods for the prevention or treatment of inflammatory bowel diseases” (CCI Corporation, priority 1996, dated 2001)
